Data taken from US6509328B1, “Glutamate receptor antagonists” (Hoffmann-La Roche Inc., priority 1999, dated 2003).

Key:
rat mGlu2 receptor = biological target: T1, rat mGlu2 receptor (Rattus norvegicus, UniProt P31421); experiment: [3H]-LY354740 binding on mGlu2 transfected CHO cell membranes
T1 construct: expressed in transfected cells; vector pcDNA I-amp (pcD1mGR2)
Description: [^3H]-LY354740 Binding on mGlu2 Transfected CHO Cell Membranes
Transfection and Cell Culture
cDNA encoding the rat mGlu2 receptor protein in pBluescript II was obtained from Prof. S. Nakanishi (Kyoto, Japan), and subcloned into the eukaryotic expression vector pcDNA I-amp from Invitrogen (N V Leek, The Netherlands). This vector construct (pcD1mGR2) was co-transfected with a psvNeo plasmid encoding the gene for neomycin resistance, into CHO cells by a modified calcium phosphate method described by Chen & Okayama (1988). The cells were maintained in Dulbecco's Modified Eagle medium with reduced L-glutamine (2 mM final concentration) and 10% dialysed foetal calf serum from Gibco BRL (Basel, Switzerland). Selection was made in the presence of […] (1000 ug/ml final). Clones were identified by reverse transcription of 5 μg total RNA, followed by PCR using mGlu2 receptor specific primers 5′-[…]-3′ and 5′-[…]-3′ in 60 mM Tris HCl (pH 10), 15 mM (NH4)2SO4, 2 mM MgCl2, 25 units/ml Taq Polymerase with 30 cycles annealing at 60° C. for 1 min., extension at 72° C. for 30s, and 1 min. 95° C. denaturation.
Cells, cultured as above, were harvested and washed three times with cold PBS and frozen at −80° C. The pellet was resuspended in cold 20 mM HEPES-NaOH buffer containing 10 mM EDTA (pH 7.4), and homogenised with a polytron (Kinematica, AG, Littau, Switzerland) for 10s at 10,000 rpm. After centrifugation for 30 min. at 4° C., the pellet was washed once with the same buffer, and once with cold 20 mM HEPES-NaOH buffer containing 0.1 mM EDTA, (pH 7.4). Protein content was measured using the Pierce method (Socochim, Lausanne, Switzerland) using bovine serum albumin as standard.
After thawing, the membranes were resuspended in cold 50 mM Tris-HCl buffer containing 2 mM MgCl2 and 2 mM CaCl2, (pH 7) (binding buffer). The final concentration of the membranes in the assays was 25 μg protein/ml. Inhibition experiments were performed with membranes incubated with 10 nM [^3H]-LY354740 at room temperature, for 1 hour, in presence of various concentrations of the compound to be tested. Following the incubations, membranes were filtered onto Whatmann GF/C glass fiber filters and washed 5 times with cold binding buffer. Non specific binding was measured in the presence of 10 μM DCG IV (TOCRIS No. 0975). After transfer of the filters into plastic vials containing 10 ml of Ultima-gold scintillation fluid (Packard, Zürich, Switzerland), the radioactivity was measured by liquid scintillation in a Tri-Carb 2500 TR counter (Packard, Zürich, Switzerland).
The inhibition curves were fitted with a four parameter logistic equation giving IC50 values, and Hill coefficients.

T1 sequence (P31421 19-872): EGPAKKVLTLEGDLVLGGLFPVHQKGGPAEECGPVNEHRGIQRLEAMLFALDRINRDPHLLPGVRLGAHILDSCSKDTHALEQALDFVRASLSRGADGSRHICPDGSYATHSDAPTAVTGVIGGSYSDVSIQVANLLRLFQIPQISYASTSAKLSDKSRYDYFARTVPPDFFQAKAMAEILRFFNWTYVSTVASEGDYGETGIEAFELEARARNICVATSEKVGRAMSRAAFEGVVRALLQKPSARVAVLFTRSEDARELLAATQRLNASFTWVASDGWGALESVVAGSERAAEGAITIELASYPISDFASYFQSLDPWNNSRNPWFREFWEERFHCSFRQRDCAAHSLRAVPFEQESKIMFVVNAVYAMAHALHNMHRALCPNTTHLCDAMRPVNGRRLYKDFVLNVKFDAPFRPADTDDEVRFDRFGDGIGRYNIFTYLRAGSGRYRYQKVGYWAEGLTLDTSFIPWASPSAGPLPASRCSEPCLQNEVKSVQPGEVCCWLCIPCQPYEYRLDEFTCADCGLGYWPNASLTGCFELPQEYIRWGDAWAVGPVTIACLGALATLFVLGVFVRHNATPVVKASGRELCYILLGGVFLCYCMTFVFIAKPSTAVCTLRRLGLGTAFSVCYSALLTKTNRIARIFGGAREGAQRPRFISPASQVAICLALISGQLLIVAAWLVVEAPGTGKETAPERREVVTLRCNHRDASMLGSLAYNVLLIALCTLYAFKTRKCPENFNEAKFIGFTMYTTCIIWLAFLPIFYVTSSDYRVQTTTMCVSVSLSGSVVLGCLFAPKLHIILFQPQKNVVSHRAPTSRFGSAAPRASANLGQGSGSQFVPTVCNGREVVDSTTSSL

Ki (rat mGlu2 receptor) [nM]	melting point	Compound
13		O=C1CC(c2cccc(-n3ccnn3)c2)=Nc2ccc(-c3cccc(F)c3F)cc2N1 [Example 129, 8-(2,3-Difluoro-phenyl)-4-(3-[1,2,3]triazol-1-yl-phenyl)-1,3-dihydro-benzo[b][1,4]diazepin-2-one]
6	193 to 196 °C	O=C1CC(c2cccc(-n3ccnc3)c2)=Nc2ccc(C#Cc3ccccc3)cc2N1 [Example 52]
16		O=C1CC(c2cccc(-c3nc(C(=O)O)cs3)c2)=Nc2ccc(-c3ccccc3F)cc2N1 [Example 160, 2-{3-[7-(2-Fluoro-phenyl)-4-oxo-4,5-dihydro-3H-benzo [b][1,4]diazepin-2-yl]-phenyl}-thiazole-4-carboxylic Acid]
8		O=C1CC(c2cccc(-n3ccnn3)c2)=Nc2ccc(-c3ccccc3F)cc2N1 [Example 110, 8-(2-Fluoro-phenyl)-4-(3-[1,2,3]triazol-1-yl-phenyl)-1,3-dihydro-benzo [b][1,4]diazepin-2-one]
17	198 to 200 °C (dec.)	N#Cc1cccc(C2=Nc3ccc(I)cc3NC(=O)C2)c1 [Example 1, 3-(7-Iodo-4-oxo-4,5-dihydro-3H-benzo[b][1,4]diazepin-2-yl)-benzonitrile]
40		O=C1CC(c2cccc(Cl)c2)=Nc2ccc(C#Cc3ccccc3)cc2N1 [Example 5, 4-(3-Chloro-phenyl)-8-phenylethynyl-1,3-dihydro-benzo[b][1,4]diazepin-2-one]
55		N#Cc1cccc(C2=Nc3ccc(-c4ccc(F)cc4)cc3NC(=O)C2)c1 [Example 57, 3-[7-(4-Fluoro-phenyl)-4-oxo-4,5-dihydro-3H-benzo[b][1,4]diazepin-2-yl]-benzonitrile]
289	> 250 °C	Cc1cc(-c2cccc(C3=Nc4ccc(-c5ccc(F)cc5)cc4NC(=O)C3)c2)on1 [Example 117, 8-(4-Fluoro-phenyl)-4-[3-(3-methyl-isoxazol-5-yl)-phenyl]-1,3-dihydro-benzo[b][1,4]diazepin-2-one]
49	217 to 218 °C	O=C1CC(c2cccc(-n3cncn3)c2)=Nc2ccc(C#Cc3ccc(F)cc3)cc2N1 [Example 62, 8-(4-Fluoro-phenylethynyl)-4-(3-[1,2,4]triazol-1-yl-phenyl)-1,3-dihydro-benzo[b][1,4]diazepin-2-one]
26	250 to 253 °C	N#Cc1cc(C2=Nc3ccc(-c4ccc(F)cc4F)cc3NC(=O)C2)ccn1 [Example 104, 4-[7-(2,4-Difluoro-phenyl)-4-oxo-4,5-dihydro-3H-benzo [b][1,4]diazepin-2-yl]-pyridine-2-carbonitrile]
170	220 °C	O=C1CC(c2cccc(-n3ccnc3)c2)=Nc2ccc(-c3ccc(F)cc3O)cc2N1 [Example 80, 8-(4-Fluoro-2-hydroxy-phenyl)-4-(3-imidazol-1-yl-phenyl)-1,3-dihydro-benzo[b][1,4]diazepin-2-one]
298	194 to 197 °C	O=C1CC(c2csc(-n3ccnc3)n2)=Nc2ccc(-c3ccccc3F)cc2N1 [Example 124, 8-(2-Fluoro-phenyl)-4-(2-imidazol-1-yl-thiazol-4-yl)-1,3-dihydro-benzo [b][1,4]diazepin-2-one]
36		O=C1CC(c2cccc(-n3cnnn3)c2)=Nc2ccc(C#Cc3ccc(F)cc3)cc2N1 [Example 87, 8-(4-Fluoro-phenylethynyl)-4-(3-tetrazol-1-yl-phenyl)-1,3-dihydro-benzo [b][1,4]diazepin-2-one]
50	170 to 172 °C	Cc1cc(F)ccc1-c1ccc2c(c1)NC(=O)CC(c1cccc(-n3ccnc3)c1)=N2 [Example 79, 8-(4-Fluoro-2-methyl-phenyl)-4-(3-imidazol-1-yl-phenyl)-1,3-dihydro-benzo[b][1,4]diazepin-2-one]
16		O=C1CC(c2cccc(-c3nc(CO)cs3)c2)=Nc2ccc(-c3ccccc3F)cc2N1 [Example 157, 8-(2-Fluoro-phenyl)-4-[3-(4-hydroxymethyl-thiazol-2-yl)-phenyl]-1,3-dihydro-benzo[b][1,4]diazepin-2-one]
108	238 to 240 °C (dec.)	Cc1nnc(-c2cccc(C3=Nc4ccc(-c5ccc(F)cc5)cc4NC(=O)C3)c2)n1C [Example 166, 4-[3-(4,5-Dimethyl-4H-[1,2,4]triazol-3-yl)-phenyl]-8-(4-fluoro-phenyl)-1,3-dihydro-benzo[b][1,4]diazepin-2-one]
250	239 to 240 °C	N#Cc1ccsc1C1=CC(=O)Nc2cc(-c3ccc(F)cc3)ccc2N1 [Example 83, 2-[7-(4-Fluoro-phenyl)-4-oxo-4,5-dihydro-1H-benzo [b][1,4]diazepin-2-yl]-thiophene-3-carbonitrile]
39		N#Cc1cc(C2=Nc3ccc(C#Cc4ccccc4)cc3NC(=O)C2)ccn1 [Example 98, 4-(4-Oxo-7-phenylethynyl-4,5-dihydro-3H-benzo [b][1,4]diazepin-2-yl)-pyridine-2-carbonitrile]
4	206 °C (dec.)	O=C1CC(c2ccnc(-n3ccnc3)c2)=Nc2ccc(C#Cc3ccc(F)cc3)cc2N1 [Example 68, 8-(4-Fluoro-phenylethynyl)-4-(2-imidazol-1-yl-pyridin-4-yl)-1,3-dihydro-benzo[b][1,4]diazepin-2-one]
10		O=C1CC(c2cccc(-n3ccnn3)c2)=Nc2ccc(-c3ccc(F)cc3F)cc2N1 [Example 123, 8-(2,4-Difluoro-phenyl)-4-(3-[1,2,3]triazol-1-yl-phenyl)-1,3-dihydro-benzo [b][1,4]diazepin-2-one]
16	215 °C	Cc1cn(-c2cccc(C3=Nc4ccc(-c5ccc(F)cc5)cc4NC(=O)C3)c2)cn1 [Example 76, 8-(4-Fluoro-phenyl)-4-[3-(4-methyl-imidazol-1-yl)-phenyl]-1,3-dihydro-benzo [b][1,4]diazepin-2-one]
	238 to 243 °C (dec.)	N#Cc1cccc(C2=Nc3ccc(-c4ccsc4)cc3NC(=O)C2)c1 [Example 7, 3-(4-Oxo-7-thiophen-3-yl-4,5-dihydro-3H-benzo[b][1,4]diazepin-2-yl)-benzonitrile]
	203 °C	CC(=O)N1CC=C(C#Cc2ccc3c(c2)NC(=O)CC(c2cccc(C#N)c2)=N3)CC1 [Example 141, 3-[7-(1-Acetyl-1,2,3,6-tetrahydro-pyridin-4-ylethynyl)-4-oxo-4,5-dihydro-3H-benzo[b][1,4]diazepin-2-yl]-benzonitrile]
	227 °C	Cc1nccn1-c1cccc(C2=Nc3ccc(-c4ccc(F)cc4)cc3NC(=O)C2)c1 [Example 82, 8-(4-Fluoro-phenyl)-4-[3-(2-methyl-imidazol-1-yl)-phenyl]-1,3-dihydro-benzo[b][1,4]diazepin-2-one]
	198 to 200 °C (dec.)	O=C1CC(c2ccncc2)=Nc2ccc(C#Cc3ccccc3)cc2N1 [Example 12, 8-Phenylethynyl-4-pyridin-4-yl-1,3-dihydro-benzo[b][1,4]diazepin-2-one]
4	216 to 218 °C	O=C1CC(c2cccc(-n3ccnc3)c2)=Nc2ccc(C#Cc3ccc(F)cc3)cc2N1 [Example 58, 8-(4-Fluoro-phenylethynyl)-4-(3-imidazol-1-yl-phenyl)-1,3-dihydro-benzo [b][1,4]diazepin-2-one]
